Results published in patent US10392423B2, “Peptide-based inhibitors of MLL/SET1 family core complexes” (The Research Foundation for the State University of New York, priority 2017, dated 2019).
Where “and” joins values, the source holds several entries; their conditions need not be identical. Equal values may be shown once. Read-outs that look alike come from different tables or passages of the source. Values belong to the molecule of their own block, whether it stands above or below them.

Assays:
WDR5 [1] = biological target: T1, WDR5 (Homo sapiens, UniProt P61964); details: ITC; reported values of other inhibitors; read-out: Dissociation Constant Kd towards WDR5; cited from earlier work
T1 construct: the experimental cell containing full-length WDR5 (20 μM); His; made in house; host or cells: Escherichia coli Rosetta II (DE3) pLysS

MLL1 core complex = biological target: T2, MLL1 core complex (Homo sapiens, UniProt P61964); experiment: Core complex methyltransferase inhibition, scintillation proximity assay; type: biochemical
T2 construct: Full-length WRAD constructs in pHis parallel expression vectors; His; made in house; host or cells: Escherichia coli Rosetta II (DE3) pLysS
Experimental: (§1) MLL Core Complex inhibition by Win6mer. Assay conditions: MLL core complexes were reconstituted by mixing purified GST-SET domains (MLL1, MLL4, MLL2, MLL3, SETd1A, and SETd1B) with WDR5, RbBP5, ASH2L, and DPY-30 in stoichiometric amounts (GST-SET:W:R:A:D 1:1:1:1:2). The activity of each core complex was assessed under the following conditions: 2 μM SET1 core complex, 80 μM biotinylated H3 substrate peptide, 0.68 μM ^3H-AdoMet (0.5 μCi) at 15° C. in Assay Buffer (50 mM Tris pH 8.5, 200 mM NaCl, 5 mM MgCl2, 5% glycerol), in a total volume of 10 μL. Core complex- or H3 peptide-only reactions incubated with ^3H-AdoMet served as background controls. Reactions were quenched with 167 mM EDTA (ethylenediaminetetraacetic acid). Each sample was diluted in 50 μL Buffer 2 containing 0.2 mg/mL BSA and then transferred to 96-well streptavidin-coated FlashPlate® Microplates (Perkin Elmer). Samples were incubated overnight at 4° C. to allow binding of the biotinylated H3 peptide to the streptavidin-coated surface prior to scintillation counting in Hidex Sense microplate reader (LabLogic). Determination of linear ranges: The activity of MLL core complexes towards H3K4me0, H3K4me1, or H3K4me2 substrate peptides was assayed as described above. Reactions were quenched at varying time points with 167 mM EDTA and prepared for scintillation counting on Streptavidin FlashPlates®. A plot of counts per minute (CPM) vs. time was constructed from which the linear range was determined. Single time points within the linear range were selected for each SET1 core complex for performing inhibition studies: H3K4me0: MLL1, MLL2*, SETd1A, and SETd1B*—5 min, MLL4—3 min, MLL3—15 min. H3K4me1: MLL1—5 min, MLL4—3 min, SETd1A—15 min, SETd1B—45 min. H3K4me2: SETd1A—2 hr, SETd1B—1 hr. (*1 μM of MLL2 and SETd1B core complex were used for H3K4me0 reactions). Dose response curves: Inhibition studies were performed in order to determine the efficiency of Win6mer as an MLL core complex inhibitor. The activity of each MLL core complex towards H3 substrate peptides was assessed (as described above) with increasing doses of Win6mer (0, 0.005, 0.05, 0.10, 0.5, 1.0, 2.5, 5.0, 10.0, and 50 μM). Reactions were quenched with 167 mM EDTA at the determined time points and prepared for scintillation counting on streptavidin-coated FlashPlastes® as described above.
(§2) The activity of SET1 core complexes at each Win6mer concentration point was normalized to the activity of the uninhibited core complex to obtain the relative methyltransferase activity. Inhibition data were plotted as relative methyltransferase activity vs. log [Win6mer] (nM). The Win6mer IC50 values for MLL1 and SETd1A core complexes were determined by fitting the data to a dose response with variable slope equation in Sigma Plot.

MLL3 core complex = biological target: T3, MLL3 core complex (Homo sapiens, UniProt P61964); experiment: as above; type: biochemical; details: H3K4me0 substrate
T3 construct: Full-length WRAD constructs in pHis parallel expression vectors; His; made in house; host or cells: Escherichia coli Rosetta II (DE3) pLysS
Experimental: as §1, §2

MLL4 core complex = biological target: T4, MLL4 core complex (Homo sapiens, UniProt P61964); experiment: as above; type: biochemical; details: for IC50: 2 μM core complex, Win6mer up to 50 μM, read-out: Inhibition Efficiency, IC50
T4 construct: Full-length WRAD constructs in pHis parallel expression vectors; His; made in house; host or cells: Escherichia coli Rosetta II (DE3) pLysS
Experimental: as §1, §2

MLL2 core complex = biological target: T5, MLL2 core complex (Homo sapiens, UniProt P61964); experiment: as above; type: biochemical; details: H3K4me0 substrate
T5 construct: Full-length WRAD constructs in pHis parallel expression vectors; His; made in house; host or cells: Escherichia coli Rosetta II (DE3) pLysS
Experimental: as §1, §2

SETd1B core complex = biological target: T6, SETd1B core complex (Homo sapiens, UniProt P61964); experiment: as above; type: biochemical; details: for IC50: Win6mer up to 50 μM, read-out: Inhibition Efficiency, IC50
T6 construct: Full-length WRAD constructs in pHis parallel expression vectors; His; made in house; host or cells: Escherichia coli Rosetta II (DE3) pLysS
Experimental: as §1, §2

[2] = system: isolated SET1 family SET domains; experiment: Isolated SET domain methyltransferase activity with Win6mer (radiometric, fluorography/LSC); type: biochemical, human; details: 100 μM Win6mer; isolated SET domains without WRAD
Experimental: Methyltransferase Assays. MLL core complex Win motif mutants. […] Reactions were quenched with SDS-loading buffer and separated by SDS-PAGE using a 4-12% Bis-Tris gel (Life Technologies) run at 200V for 30 minutes. The gels were enhanced at room temperature for 30 minutes (Enlightning, Perkin Elmer Inc.) then dried for 2.5 hours at 72° C. under constant vacuum. The dried gels were exposed to film (Kodak Biomax MS Film) at −80° C. for 4-24 hours prior to developing. Liquid scintillation counting (LSC) was performed by excising gel bands corresponding to histone H3 peptides, which were dissolved in 750 μL of Solvable (Perkin Elmer Inc.), incubated at room temperature for 30 minutes followed by incubation at 50° C. for 3 hours. The solubilized volume of each sample was transferred to liquid scintillation vials containing 10 mL of Ultima Gold XL liquid scintillation cocktail (Perkin Elmer Inc.). Samples were dark adapted for 1 hour then counted for 5 minutes each with a two-sigma error cut-off using an all-purpose scintillation counter (Beckman Coulter).
MLL SET domains treated with Win6mer. Isolated SET1 family SET domains (5 μM) were incubated with 1 μCi of ^3H-AdoMet (Perkin Elmer Inc.) and 100 μM of H3K4me0, H3K4me1, or H3K4me2 peptides, with and without 100 μM Win6mer, in Assay Buffer at 15° C. for 8 hours. Reactions were quenched with SDS-loading buffer. […]

[3] = biological target: T7, SET1 family core complex assembly (WDR5, RbBP5, ASH2L) (Homo sapiens, UniProt P61964); experiment: GST pull-down of endogenous WRAD components from MCF-7 cell extracts with or without Win6mer; type: binding; details: 10 μM Win6mer
T7 construct: host or cells: MCF-7 cell extract
Experimental: For pull-down assays using cell extracts, a 3 μM concentration of each GST-tagged SET domain was incubated with 100 μg of MCF-7 cell extract for 16 hours at 4° C. Following the initial incubation, 20 μL of a 50:50 slurry of glutathione agarose beads was added to each sample and incubated for an additional 2 hours at 4° C. Samples were washed 3× in radioimmunoprecipitation (RIPA) buffer. Samples were eluted from beads by boiling the samples at 95° C. in SDS-loading buffer for 10 minutes. Samples of the supernatant were separated on a 4-12% Bis-Tris gel and transferred to a PVDF membrane at 30V for 1 hour. PVDF membranes were blocked for 1 hour with a 5% non-fat milk solution then incubated with primary antibody (1:2,000) for 1 hour at room temperature. Blots were washed 4 times then incubated with an HRP-conjugated anti-rabbit secondary antibody (1:5,000) for 1 hour at room temperature. Blots were washed an additional 4 times, then visualized by chemiluminesence (Clarity Western, BioRad) on a BioRad ChemiDoc MP Imager using the chemiluminesence setting.

WDR5 [4] = biological target: T1, WDR5; experiment: Isothermal titration calorimetry (ITC) binding to WDR5
Experimental: Isothermal titration calorimetry (ITC). Purified full-length WDR5 and Win6mer peptide were extensively dialyzed in separate Micro Float-A-Lyzer® Dialysis Devices, MWCO 500-1000 Da (Spectrum Labs) against sample buffer consisting of 20 mM Tris pH 7.5, 300 mM NaCl, 1 mM TCEP, 1 μM ZnCl2 buffer. ITC experiments were carried out at 20° C. using a VP-ITC micro-calorimeter (MicroCal). After an initial delay of 120 sec, Win6mer (200 μM) was titrated into the experimental cell containing full-length WDR5 (20 μM) over the course of 45 injections, 5 μL each. Reference power was set to 10 μCal/sec and stirring speed was set to 295 rpm. Data were integrated using NITPIC. SEDPHAT was used to fit the integrated data to a single-site heterogeneous association model, using simulated annealing and Maxquardt-Levenberg algorithms. Automatic confidence interval search with projection method was applied to estimate the error of the determined thermodynamic parameters. Confidence interval was set to 2σ (95%). ITC figure was generated using GUSSI.

Structure (SMILES): COC(=O)c1ccc(N2CCN(C)CC2)c(NC(=O)c2cccc(OC)c2)c1 [WDR5-0103]
Kd (WDR5 [1]): 0.45 µM

IC50 (MLL1 core complex; 1.8 μM of enzyme complex assayed, read-out: IC50): 2.2 µM
IC50 (MLL1 core complex; 2 μM of enzyme complex assayed, read-out: average IC50): 2.2 µM
IC50 (MLL1 core complex; H3K4me1 substrate, 2 μM core complex, read-out: Inhibition Efficiency, IC50 [95% confidence interval]): 2.2 µM
methyltransferase activity of core complex on treatment (MLL3 core complex): uninhibited
IC50 (MLL3 core complex; 2 μM core complex, Win6mer up to 50 μM, read-out: Inhibition Efficiency, IC50): > 50 µM
methyltransferase activity of core complex on treatment (MLL4 core complex; H3K4me0 substrate): uninhibited
IC50 (MLL4 core complex; H3K4me0 substrate): > 50 µM
IC50 (MLL4 core complex; H3K4me1 substrate): > 50 µM
methyltransferase activity of core complex on treatment (MLL2 core complex): uninhibited
IC50 (MLL2 core complex; 1 μM core complex, Win6mer up to 50 μM, read-out: Inhibition Efficiency, IC50): > 50 µM
methyltransferase activity of core complex on treatment (SETd1B core complex; H3K4me0 substrate): uninhibited
IC50 (SETd1B core complex; H3K4me0 substrate, 1 μM core complex): > 50 µM
IC50 (SETd1B core complex; H3K4me1 substrate, 2 μM core complex): > 50 µM
IC50 (SETd1B core complex; H3K4me2 substrate, 2 μM core complex): > 50 µM
effect on intrinsic monomethyltransferase activity of SET1 family members [2]: did not affect
RbBP5/ASH2L binding of MLL2, MLL3, MLL4 and SETd1B [3]: only a modest reduction
RbBP5/ASH2L interaction with MLL1 and SETd1A complexes [3]: near total loss
ability of all six SET1 family members to interact with endogenous WDR5 [3]: greatly reduced
increase in binding affinity over the best naturally occurring Win motif sequence (WDR5 [4]): ~18 fold
Kd (WDR5 [4]; read-out: Dissociation Constant Kd towards WDR5): ~0.003 µM and 0.0029 µM
Structure (SMILES): CC(=O)N[C@@H](C)C(=O)N[C@@H](CCCNC(=N)N)C(=O)N[C@H](C(=O)N[C@@H](CCC(=O)O)C(=O)N[C@H](C(=O)N[C@@H](Cc1ccc(O)cc1)C(N)=O)C(C)C)[C@@H](C)O [Win6mer, Ac-ARTEVY-NH2]
